Data as given in PMC6385122, “Design and Synthesis of Arylamidine Derivatives as Serotonin/Norepinephrine Dual Reuptake Inhibitors” (Molecules, 2019).
Where a name gives a salt, the structure may show the parent alone.

Columns and labels:
[1] = biological target: T1, 5-HT reuptake (5-HT transporter) (Rattus norvegicus, UniProt P31652); assay: Inhibition of 5-HT reuptake in rat brain synaptosome (3H-5-HT uptake); assay type: biochemical; details: for inhibition at 10 µM: read-out: 5-HT reuptake percent inhibition
T1 construct: from tissue; host or cells: Wistar rat brain (procerebrum; crude synaptosomal supernatant)
T1 sequence (P31652 whole entry): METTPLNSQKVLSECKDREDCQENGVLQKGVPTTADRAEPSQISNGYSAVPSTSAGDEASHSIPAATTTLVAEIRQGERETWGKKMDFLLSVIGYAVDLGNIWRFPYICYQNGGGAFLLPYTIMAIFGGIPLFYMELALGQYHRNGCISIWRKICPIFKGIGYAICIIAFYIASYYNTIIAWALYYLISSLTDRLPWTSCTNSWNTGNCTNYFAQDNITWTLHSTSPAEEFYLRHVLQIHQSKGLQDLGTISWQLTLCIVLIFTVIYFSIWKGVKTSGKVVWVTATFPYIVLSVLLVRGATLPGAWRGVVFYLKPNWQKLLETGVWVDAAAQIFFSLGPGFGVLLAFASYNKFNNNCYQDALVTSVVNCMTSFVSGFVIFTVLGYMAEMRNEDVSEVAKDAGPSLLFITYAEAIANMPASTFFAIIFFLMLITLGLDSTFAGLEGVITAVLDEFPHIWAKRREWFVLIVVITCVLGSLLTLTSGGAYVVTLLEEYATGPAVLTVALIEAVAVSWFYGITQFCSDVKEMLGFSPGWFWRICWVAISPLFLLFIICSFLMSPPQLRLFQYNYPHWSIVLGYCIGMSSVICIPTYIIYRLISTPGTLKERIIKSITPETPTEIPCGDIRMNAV
Protocol: (§1) All the target compounds were evaluated for their inhibitory activity against the reuptake of 5-HT and NE at the cellular level. Rat brain tissue was used for the uptake test, which included ^3H-5-HT and ^3H-NE [15]. 1-[7,8-^3H]-Noradrenaline and 5-hydroxy-[^3H]-tryptamine trifluoroacetate were obtained from Amersham Corporation.
(§2) Adult male Wistar rats were used. Animals were killed by decapitation and the whole brain, with the exception of the brainstem and cerebellum, was quickly removed. The procerebrum region was prepared, weighed, and homogenized in 10 volumes of ice-cold 0.32 mol/L sucrose solution using a glass homogenizer. The homogenate was centrifuged at 1000× g and 4 °C for 10 min. The supernatant was decanted and used for the uptake experiments. […] For each assay, three tubes were incubated with the vehicle (20 µL) at 0 °C in an ice bath. After incubation, the tubes were immediately filtered with a cell harvester. The fiberglass filter membrane was washed three times with ice-cold saline, placed in a scintillation vial, and counted in liquid scintillation cocktail (4 mL). Active uptake was the difference between the counts per minute at 37 and 0 °C. The percent inhibition at each drug concentration was the mean of three measurements.

[2] = biological target: T2, NE reuptake (NE transporter) (Rattus norvegicus, UniProt Q63380); assay: Inhibition of NE reuptake in rat brain synaptosome (3H-NE uptake); assay type: biochemical; details: for inhibition at 10 µM: read-out: NE reuptake percent inhibition
T2 construct: from tissue; host or cells: Wistar rat brain (procerebrum; crude synaptosomal supernatant)
T2 sequence (Q63380 1-617): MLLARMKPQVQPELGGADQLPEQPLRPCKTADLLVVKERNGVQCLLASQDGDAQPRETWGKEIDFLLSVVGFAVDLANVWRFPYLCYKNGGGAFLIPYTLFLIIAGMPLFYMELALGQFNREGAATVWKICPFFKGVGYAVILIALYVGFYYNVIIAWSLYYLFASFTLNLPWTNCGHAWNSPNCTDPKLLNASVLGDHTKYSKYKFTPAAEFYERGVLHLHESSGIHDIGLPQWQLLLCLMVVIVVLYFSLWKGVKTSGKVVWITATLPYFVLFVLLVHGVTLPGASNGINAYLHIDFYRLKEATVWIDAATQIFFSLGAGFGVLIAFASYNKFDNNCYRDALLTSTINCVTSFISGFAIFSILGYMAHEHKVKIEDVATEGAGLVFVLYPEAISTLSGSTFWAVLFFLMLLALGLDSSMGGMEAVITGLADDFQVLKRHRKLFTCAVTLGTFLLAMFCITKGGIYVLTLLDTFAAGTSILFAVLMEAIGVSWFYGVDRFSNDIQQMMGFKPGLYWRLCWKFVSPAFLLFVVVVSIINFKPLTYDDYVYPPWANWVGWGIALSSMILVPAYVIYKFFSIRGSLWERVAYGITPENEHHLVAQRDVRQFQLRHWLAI
Protocol: as §1, §2

rats = assay: Tail suspension test (TST) in rats; assay type: in vivo, rat; details: male rats, 30 mg/kg PO; for Immobility Time: 60 min after administration; for Rate of Shorten Time (%): compared with the negative control group
Protocol: Based on the in vitro results, compounds I-19, II-4, and II-5 were selected for the tail suspension test (TST) in rats. The TST has been used widely as a preclinical model for screening antidepressant activity, and it is sensitive to commercially available antidepressant drugs. In the assay, rats are suspended by tail and the time that the animal is immobile is recorded. The compounds were administered to male rats at a dose of 30 mg/kg (PO). […] In addition, the safety profile of compound II-5 was also explored with a preliminary acute toxicity test in mice at a single dose of 200 or 400 mg/kg (PO) (n = 6).
For two days before the formal experiment, the rats in each group were given doses orally once a day in the morning and in the afternoon. The rats were given doses orally once in each group in the formal experiment. After 60 min of administration, the rats were suspended head-down more than 50 cm from the ground with a 12-cm-long piece of insulating tape at a distance of 1 cm from the tail tip. The distance between adjacent rats was 15 cm. The immobility time of the rats was recorded. The rate of change in the immobility time of the rats in the test drug group and the positive control group was calculated and compared with the negative control group. Statistical analysis was performed using Prism 7.0 (GraphPad Software, San Diego, CA, USA).

Row | SMILES | melting point [°C] | further results
1 | Fc1ccccc1/C(=N\Cc1ccccc1)N1CCNCC1 (as salt: hydrochloride) [Compound I-7, (E)-N-((2-Fluorophenyl)(piperazin-1-yl)methylene)-1-phenylmethanaminehydrochloride] | 182 to 184 | 
2 | N#Cc1ccc(/C(=N\Cc2ccccc2)N2CCNCC2)cc1 (as salt: hydrochloride) [Compound I-8, (E)-4-((Benzylimino)(piperazin-1-yl)methyl)benzonitrilehydrochloride] | 205 to 207 | 
3 | N#Cc1cccc(/C(=N\Cc2ccccc2)N2CCNCC2)c1 (as salt: hydrochloride) [Compound I-9, (E)-3-((Benzylimino)(piperazin-1-yl)methyl)benzonitrilehydrochloride] | 190 to 192 | 
4 | Cc1ccc(/C(=N\Cc2ccccc2)N2CCNCC2)cc1 (as salt: hydrochloride) [Compound I-10, (E)-1-Phenyl-N-(piperazin-1-yl(p-tolyl)methylene)methanaminehydrochloride] | 172 to 174 | 
5 | O=[N+]([O-])c1ccc(/C(=N\Cc2ccccc2)N2CCNCC2)c(Cl)c1 (as salt: hydrochloride) [Compound I-11, (E)-N-((2-Chloro-4-nitrophenyl)(piperazin-1-yl)methylene)-1-phenylmethanaminehydrochloride] | 195 to 197 | 
6 | O=[N+]([O-])c1ccc(/C(=N\Cc2ccc(Cl)cc2)N2CCNCC2)cc1 (as salt: hydrochloride) [Compound I-12, (E)-1-(4-Chlorophenyl)-N-((4-nitrophenyl)(piperazin-1-yl)methylene)methanaminehydrochloride] | 172 to 174 | 
7 | Clc1ccc(C/N=C(\c2ccccc2Cl)N2CCNCC2)cc1 (as salt: hydrochloride) [Compound I-13, (E)-1-(4-Chlorophenyl)-N-((2-chlorophenyl)(piperazin-1-yl)methylene)methanaminehydrochloride] | 181 to 183 | 
8 | Clc1ccc(C/N=C(\c2cccc(Cl)c2)N2CCNCC2)cc1 (as salt: hydrochloride) [Compound I-14, (E)-1-(4-Chlorophenyl)-N-((3-chlorophenyl)(piperazin-1-yl)methylene)methanaminehydrochloride] | 218 to 220 | 
9 | Clc1ccc(C/N=C(\c2ccc(Cl)cc2)N2CCNCC2)cc1 (as salt: hydrochloride) [Compound I-15, (E)-1-(4-Chlorophenyl)-N-((4-chlorophenyl)(piperazin-1-yl)methylene)methanaminehydrochloride] | 157 to 159 | 
10 | Fc1ccc(/C(=N\Cc2ccc(Cl)cc2)N2CCNCC2)cc1 (as salt: hydrochloride) [Compound I-16, (E)-1-(4-Chlorophenyl)-N-((4-fluorophenyl)(piperazin-1-yl)methylene)methanaminehydrochloride] | 165 to 167 | 
11 | Fc1ccccc1/C(=N\Cc1ccc(Cl)cc1)N1CCNCC1 (as salt: hydrochloride) [Compound I-17, (E)-1-(4-Chlorophenyl)-N-((2-fluorophenyl)(piperazin-1-yl)methylene)methanaminehydrochloride] | 215 to 217 | 
12 | N#Cc1ccc(/C(=N\Cc2ccc(Cl)cc2)N2CCNCC2)cc1 (as salt: hydrochloride) [Compound I-18, (E)-1-(4-Chlorophenyl)-N-((4-cyanophenyl)(piperazin-1-yl)methylene)methanaminehydrochloride] | 180 to 182 | 
13 | Cc1ccc(/C(=N\Cc2ccc(Cl)cc2)N2CCNCC2)cc1 (as salt: hydrochloride) [Compound I-20, (E)-1-(4-Chlorophenyl)-N-(piperazin-1-yl(p-tolyl)methylene)methanaminehydrochloride] | 183 to 185 | 
14 | COc1ccc(C/N=C(\c2ccc([N+](=O)[O-])cc2)N2CCNCC2)cc1 (as salt: hydrochloride) [Compound I-21, (E)-1-(4-Methoxyphenyl)-N-((4-nitrophenyl)(piperazin-1-yl)methylene)methanaminehydrochloride] | 210 to 212 | 
15 | c1ccc(/C(=N\Cc2cccc3ccccc23)N2CCNCC2)cc1 (as salt: hydrochloride) [II-1, (E)-1-(Naphthalen-1-yl)-N-(phenyl(piperazin-1-yl)methylene)methanaminehydrochloride] | 187 to 189 | 
16 | O=[N+]([O-])c1ccc(/C(=N\Cc2cccc3ccccc23)N2CCNCC2)cc1 (as salt: hydrochloride) [II-2, (E)-1-(Naphthalen-1-yl)-N-((4-nitrophenyl)(piperazin-1-yl)methylene)methanaminehydrochloride] | 202 to 204 | 
17 | Fc1ccc(/C(=N\Cc2cccc3ccccc23)N2CCNCC2)cc1 (as salt: hydrochloride) [II-3, (E)-N-((4-Fluorophenyl)(piperazin-1-yl)methylene)-1-(naphthalen-1-yl)methanaminehydrochloride] | 193 to 195 | 
18 | Clc1cccc(/C(=N\Cc2cccc3ccccc23)N2CCNCC2)c1 (as salt: hydrochloride) [II-6, (E)-N-((3-Chlorophenyl)(piperazin-1-yl)methylene)-1-(naphthalen-1-yl)methanaminehydrochloride] | 198 to 200 | 
19 | Clc1ccc(/C(=N\Cc2cccc3ccccc23)N2CCNCC2)cc1 (as salt: hydrochloride) [II-7, (E)-N-((4-Chlorophenyl)(piperazin-1-yl)methylene)-1-(naphthalen-1-yl)methanaminehydrochloride] | 210 to 212 | 
20 | N#Cc1ccc(/C(=N\Cc2cccc3ccccc23)N2CCNCC2)cc1 (as salt: hydrochloride) [II-8, (E)-4-(((Naphthalen-1-ylmethyl)imino)(piperazin-1-yl)methyl)benzonitrilehydrochloride] | 158 to 160 | 
21 | N#Cc1cccc(/C(=N\Cc2cccc3ccccc23)N2CCNCC2)c1 (as salt: hydrochloride) [II-9, (E)-3-(((Naphthalen-1-ylmethyl)imino)(piperazin-1-yl)methyl)benzonitrilehydrochloride] | 168 to 170 | 
22 | Cc1ccc(/C(=N\Cc2cccc3ccccc23)N2CCNCC2)cc1 (as salt: hydrochloride) [II-10, (E)-1-(Naphthalen-1-yl)-N-(piperazin-1-yl(p-tolyl)methylene)methanaminehydrochloride] | 178 to 180 | 
23 | O=[N+]([O-])c1cccc2c(/C(=N\Cc3ccccc3)N3CCNCC3)cccc12 (as salt: hydrochloride) [III-1, (E)-N-((5-Nitronaphthalen-1-yl)(piperazin-1-yl)methylene)-1-phenylmethanaminehydrochloride] | 173 to 175 | 
24 | COc1ccc(/C(=N\Cc2ccccc2)N2CCNCC2)cc1.Cl [Compound I-1, (E)-N-((4-Methoxyphenyl)(piperazin-1-yl)methylene)-1-phenylmethanamine hydrochloride] | 195 to 197 | inhibition at 10 µM [1]: 65%; inhibition at 10 µM [2]: 67%
25 | N#Cc1cccc(/C(=N\Cc2ccc(Cl)cc2)N2CCNCC2)c1 [Compound I-19, (E)-1-(4-Chlorophenyl)-N-((3-cyanophenyl)(piperazin-1-yl)methylene)methanaminehydrochloride] |  | IC50 [1]: 830 nM; inhibition at 10 µM [1]: 82%; IC50 [2]: 560 nM; inhibition at 10 µM [2]: 78%; Immobility Time (rats): 34 ± 17 s; Rate of Shorten Time (%) (rats): 37.8%
26 | CNCC[C@H](Oc1cccc2ccccc12)c1cccs1 [Duloxetine, reference compound] |  | Immobility Time (rats): 11 ± 5 s; Rate of Shorten Time (%) (rats): 79.0%
27 | Fc1ccccc1/C(=N\Cc1cccc2ccccc12)N1CCNCC1 [II-4, (E)-N-((2-Fluorophenyl)(piperazin-1-yl)methylene)-1-(naphthalen-1-yl)methanaminehydrochloride] |  | IC50 [1]: 130 nM; inhibition at 10 µM [1]: 90%; IC50 [2]: 880 nM; inhibition at 10 µM [2]: 78%; Immobility Time (rats): 33 ± 19 s; Rate of Shorten Time (%) (rats): 39.7%
